Results as given in PubChem BioAssay AID1259407 (Chemical Carcinogenesis Research Information System (CCRIS), 2018).
The source made the active and inactive calls. The rule behind the calls is not given here.

Tested on: CCRIS mutagenicity, Ames/micronucleus/aberration tests
Assay: CCRIS mutagenicity studies
[1] = Test System: AMES SALMONELLA TYPHIMURIUM, Strain/Indicator: TA97, Metabolic Activation: HAMSTER, LIVER, S-9, AROCLOR 1254 (10%), Method: PREINCUBATION
[2] = Test System: AMES SALMONELLA TYPHIMURIUM, Strain/Indicator: TA97, Metabolic Activation: NONE, Method: PREINCUBATION
[3] = Test System: AMES SALMONELLA TYPHIMURIUM, Strain/Indicator: TA97, Metabolic Activation: RAT, LIVER, S-9, AROCLOR 1254 (10%), Method: PREINCUBATION
[4] = Test System: AMES SALMONELLA TYPHIMURIUM, Strain/Indicator: TA98, Metabolic Activation: HAMSTER, LIVER, S-9, AROCLOR 1254 (10%), Method: PREINCUBATION
[5] = Test System: AMES SALMONELLA TYPHIMURIUM, Strain/Indicator: TA98, Metabolic Activation: RAT, LIVER, S-9, AROCLOR 1254 (10%), Method: PREINCUBATION
[6] = Test System: AMES SALMONELLA TYPHIMURIUM, Strain/Indicator: TA100, Metabolic Activation: NONE, Method: PREINCUBATION
[7] = Test System: AMES SALMONELLA TYPHIMURIUM, Strain/Indicator: TA100, Metabolic Activation: RAT, LIVER, S-9, AROCLOR 1254 (10%), Method: PREINCUBATION
[8] = Test System: AMES SALMONELLA TYPHIMURIUM, Strain/Indicator: TA1535, Metabolic Activation: HAMSTER, LIVER, S-9, AROCLOR 1254 (10%), Method: PREINCUBATION
[9] = Test System: AMES SALMONELLA TYPHIMURIUM, Strain/Indicator: TA1535, Metabolic Activation: NONE, Method: PREINCUBATION
[10] = Test System: AMES SALMONELLA TYPHIMURIUM, Strain/Indicator: TA1535, Metabolic Activation: RAT, LIVER, S-9, AROCLOR 1254 (10%), Method: PREINCUBATION
[11] = Test System: AMES SALMONELLA TYPHIMURIUM, Strain/Indicator: TA98, Metabolic Activation: NONE, Method: PREINCUBATION

Structure (SMILES): OCC(Cl)CCl (configuration not stated)
- mutagenic call [1]: active; positive
- mutagenic call [2]: active; positive
- mutagenic call [3]: active; positive
- mutagenic call [4]: active; positive
- mutagenic call [5]: active; positive
- mutagenic call (Test System: AMES SALMONELLA TYPHIMURIUM, Strain/Indicator: TA100, Metabolic Activation: HAMSTER, LIVER, S-9, AROCLOR 1254 (10%), Method: PREINCUBATION): active; positive
- mutagenic call [6]: active; positive
- mutagenic call (Test System: AMES SALMONELLA TYPHIMURIUM, Strain/Indicator: TA100, Metabolic Activation: NONE, Method: STANDARD PLATE): active; positive
- mutagenic call [7]: active; positive
- mutagenic call (Test System: AMES SALMONELLA TYPHIMURIUM, Strain/Indicator: TA100, Metabolic Activation: RAT, LIVER, S-9, AROCLOR 1254, Method: STANDARD PLATE): active; positive
- mutagenic call (Test System: AMES SALMONELLA TYPHIMURIUM, Strain/Indicator: TA100, Metabolic Activation: RAT, LIVER, S-9, KANECHLOR 500, Method: PREINCUBATION): active; positive
- mutagenic call [8]: active; positive
- mutagenic call [9]: active; positive
- mutagenic call (Test System: AMES SALMONELLA TYPHIMURIUM, Strain/Indicator: TA1535, Metabolic Activation: NONE, Method: STANDARD PLATE): active; positive
- mutagenic call [10]: active; positive
- mutagenic call (Test System: AMES SALMONELLA TYPHIMURIUM, Strain/Indicator: TA1535, Metabolic Activation: RAT, LIVER, S-9, AROCLOR 1254, Method: STANDARD PLATE): active; positive

Structure (SMILES): Cc1cc(C)cc(N)c1
- mutagenic call [1]: inactive; negative
- mutagenic call [2]: inactive; negative
- mutagenic call [3]: inactive; negative
- mutagenic call [4]: inactive; negative
- mutagenic call [11]: inactive; negative
- mutagenic call [5]: inactive; negative
- mutagenic call [6]: inactive; negative
- mutagenic call [7]: inactive; negative
- mutagenic call [8]: inactive; negative
- mutagenic call [9]: inactive; negative
- mutagenic call [10]: inactive; negative
- mutagenic call (Test System: AMES SALMONELLA TYPHIMURIUM, Strain/Indicator: TA1537, Metabolic Activation: HAMSTER, LIVER, S-9, AROCLOR 1254 (10%), Method: PREINCUBATION): inactive; negative

Structure (SMILES): O=c1oc2c(O)c(O)cc3c(=O)oc4c(O)c(O)cc1c4c23
- mutagenic call [11]: inactive; negative
- mutagenic call (Test System: AMES SALMONELLA TYPHIMURIUM, Strain/Indicator: TA98, Metabolic Activation: RAT LIVER S-9, Method: PREINCUBATION): inactive; negative
- mutagenic call [6]: inactive; negative
- mutagenic call (Test System: AMES SALMONELLA TYPHIMURIUM, Strain/Indicator: TA100, Metabolic Activation: RAT LIVER S-9, Method: PREINCUBATION): inactive; negative
- mutagenic call (Test System: Ames Salmonella typhimurium, Strain/Indicator: TA102, Metabolic Activation: None, Method: Preincubation): inactive; negative
- mutagenic call (Test System: Ames Salmonella typhimurium, Strain/Indicator: TA102, Metabolic Activation: Rat, Liver, S-9, Aroclor 1254 in 0.154 M KCl, Method: Preincubation): inactive; negative
- mutagenic call (Test System: E. COLI, Strain/Indicator: WP2, Metabolic Activation: RAT, LIVER, S-9, AROCLOR 1254, Method: STANDARD PLATE): inactive; negative
- mutagenic call (Test System: MOUSE LYMPHOMA, Strain/Indicator: L5178Y (TK+/TK-), Metabolic Activation: NONE, Method: SUSPENSION/PLATE): inactive; negative. reevaluation of results: negative
- mutagenic call (Test System: MOUSE LYMPHOMA, Strain/Indicator: L5178Y (TK+/TK-), Metabolic Activation: RAT, LIVER, S-9, AROCLOR 1254, Method: SUSPENSION/PLATE): inactive; negative. reevaluation of results: inconclusive
